Read-outs that look alike come from different tables or passages of the source. Marks after values point to notes of the source that are not given here.
Columns and labels:
[1] = system: C=C[C@H]1C[N@@]2CC[C@H]1C[C@@H]2[C@@H](O)c1ccnc2ccc(OC)cc12; assay: cells, lysate or membranes; settings: other: transport via 76I-PfCRT^K1 in oocytes; CQ pH 6.0, quinine and quinidine pH 5.0; 27.5 °C
[2] = system: C=C[C@H]1C[N@@]2CC[C@H]1C[C@H]2[C@H](O)c1ccnc2ccc(OC)cc12; assay: cells, lysate or membranes; settings: other: transport via 76I-PfCRT^K1 in oocytes; CQ pH 6.0, quinine and quinidine pH 5.0; 27.5 °C
[3] = system: parasites carrying isoforms of PfCRT^CQR; settings: in vitro studies, cited from earlier work
[4] = system: noninjected oocytes and oocytes expressing PfCRT variants or PfNT1; assay: Trans-stimulation of [3H]CQ uptake by microinjected compound, all oocyte types; type: cell-based, Plasmodium falciparum; settings: any of the oocyte types, estimated intracellular concentrations 5 and 10 mM
Experimental: A subset of experiments measured the ability of unlabeled amantadine to trans-stimulate the uptake of [^3H]CQ into the oocyte. Immediately prior to the commencement of the experiment, the oocytes (days 3–4 post-injection of the cRNA) were microinjected with either amantadine (estimated intracellular concentrations of 1, 2.5, 5, 10, 15, or 20 mM) or a control treatment (buffer, spermine, or histidine; the estimated intracellular concentrations of spermine and histidine were 5 and 10 mM). The volume injected was 50 nL and the intracellular concentrations were calculated using previous estimates of the volume of stage V-VI oocytes (~400 nL [77]). The resealed oocytes were then incubated at 16–18°C in OR^2+ buffer for approximately 5 min and the influx of [^3H]CQ was measured as described above. […] The Michaelis-Menten equation was then fitted to the data to derive the kinetic parameters for the trans-stimulation of [^3H]CQ transport by amantadine.

PfCRT^Dd2 [5] = molecular target: PfCRT^Dd2 (Plasmodium falciparum, UniProt Q9N623, A220S/I356T/K76T/M74I/N326S/N75E/Q271E/R371I); type: cell-based; settings: extracellular concentrations of 1 and 2 mM; pH 5.5; 15 μM unlabeled CQ
Experimental: The uptake of [^3H]CQ (0.25 μM) was measured in the absence (solvent control) or presence of the test compounds (extracellular concentrations of 1 and 2 mM). The assays were conducted at pH 5.5 and in the presence of 15 μM unlabeled CQ.

PfCRT^K1 [6] = assay: [3H]drug transport into Xenopus oocytes expressing PfCRT; type: cell-based, Plasmodium falciparum; settings: for rate of uptake mediated by PfCRT^K1, greater than that measured for PfCRT^Dd2: S4 Fig; for rate of uptake: oocytes expressing PfCRT^K1, [3H]drug […], pH 5.0, 1 μM unlabeled drug (Fig 2B, C); for rate of transport, times lower than that measured for CQ: total drug 1.25 μM vs ~12-fold higher total CQ
Experimental: (§1) For each treatment, 10 oocytes were transferred to a 5 mL polystyrene round bottom tube (Falcon) and washed twice with 3.5 mL of ND96 buffer, with the residual buffer removed by pipette. […] The assay was terminated by removing the reaction buffer with a pipette and washing the oocytes twice with 3.5 mL of ice-cold ND96 buffer. Each oocyte was transferred to a separate well of a white 96-well plate (NUNC or PerkinElmer), incubated overnight at room temperature in 30 μL of 10% SDS, and mixed on an orbital shaker the following day for approximately 5 min. The lysed oocyte was then combined with 150 μL of MicroScint-40 microscintillant (PerkinElmer), the plate covered with a TopSeal-A (PerkinElmer), and the radioactivity measured with a PerkinElmer MicroBeta^2 microplate liquid scintillation analyzer.

PfCRT^Dd2 [7] = assay: as above; type: cell-based, Plasmodium falciparum; settings: oocytes expressing PfCRT^Dd2; [3H]drug […], pH 5.0, 1 μM unlabeled drug (S4 Fig)
Experimental: as §1

76N-PfCRT^K1 = assay: as above; type: cell-based, Plasmodium falciparum; settings: transport via 76N-PfCRT^K1 in oocytes, CQ pH 6.0, quinine and quinidine pH 5.0; for Km: read-out: Apparent Km
Experimental: as §1
Note that noninjected oocytes and oocytes expressing PfCRT^3D7 take up [^3H]CQ to similar (low) levels via simple diffusion of the neutral species of the drug; this represents the ‘background’ level of [^3H]CQ accumulation in oocytes (refer to Martin et al. for full data and discussion).

noninjected oocytes = assay: [3H]drug uptake into noninjected oocytes (background accumulation); type: cell-based, Xenopus laevis; settings: [3H]drug […]
Experimental: as §1

76I-PfCRT^K1 [8] = molecular target: T1, 76I-PfCRT^K1 (Plasmodium falciparum, UniProt Q9N623, A220S/K76I/M74I/N326S/N75E/Q271E/R371I); type: cell-based; settings: for Apparent Vmax: transport via 76I-PfCRT^K1 in oocytes, CQ pH 6.0, quinine and quinidine pH 5.0
Experimental: as §1

PfCRT^CQR = settings: oocyte system, inhibitor of PfCRT^CQR; cited from earlier work
76I,369F-PfCRT^K1 = 76I,369F-PfCRT^K1 (Plasmodium falciparum, UniProt Q9N623, A220S/K76I/M74I/N326S/N75E/Q271E/R371I/V369F); assay: Inhibition of [3H]amantadine transport in oocytes; type: cell-based; settings: via 76I,369F-PfCRT^K1 in oocytes
Experimental: as §1

76I-PfCRT^K1 [9] = molecular target: T1, 76I-PfCRT^K1; assay: Inhibition of [3H]amantadine transport in oocytes; type: cell-based; settings: via 76I-PfCRT^K1 in oocytes
Experimental: as §1

PfCRT^K1 [10] = assay: Inhibition of [3H]amantadine transport in oocytes; type: cell-based, Plasmodium falciparum; settings: via PfCRT^K1 in oocytes
Experimental: as §1

[11] = artemisinin and/or dihydroartemisinin
[12] = transport via PfCRT^K1 in oocytes, CQ pH 6.0, quinine and quinidine pH 5.0
[13] = pH 5.0, 1 μM unlabeled drug (Fig 2B, C)
[14] = pH 5.0, 1 μM unlabeled drug (S4 Fig)

T1 sequence (Q9N623 whole entry A220S/K76I/M74I/N326S/N75E/Q271E/R371I): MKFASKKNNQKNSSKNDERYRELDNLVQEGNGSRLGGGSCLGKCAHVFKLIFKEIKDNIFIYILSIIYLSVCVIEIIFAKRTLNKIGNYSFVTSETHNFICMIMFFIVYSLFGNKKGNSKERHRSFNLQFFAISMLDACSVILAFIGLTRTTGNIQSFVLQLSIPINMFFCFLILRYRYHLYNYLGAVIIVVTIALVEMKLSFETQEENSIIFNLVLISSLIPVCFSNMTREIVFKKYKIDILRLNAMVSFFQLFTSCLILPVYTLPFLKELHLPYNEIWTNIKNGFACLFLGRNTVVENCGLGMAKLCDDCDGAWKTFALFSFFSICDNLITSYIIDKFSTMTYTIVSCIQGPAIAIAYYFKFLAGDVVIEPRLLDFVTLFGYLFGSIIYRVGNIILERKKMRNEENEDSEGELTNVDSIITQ
Sequence of 76I,369F-PfCRT^K1 (Q9N623 whole entry A220S/K76I/M74I/N326S/N75E/Q271E/R371I/V369F): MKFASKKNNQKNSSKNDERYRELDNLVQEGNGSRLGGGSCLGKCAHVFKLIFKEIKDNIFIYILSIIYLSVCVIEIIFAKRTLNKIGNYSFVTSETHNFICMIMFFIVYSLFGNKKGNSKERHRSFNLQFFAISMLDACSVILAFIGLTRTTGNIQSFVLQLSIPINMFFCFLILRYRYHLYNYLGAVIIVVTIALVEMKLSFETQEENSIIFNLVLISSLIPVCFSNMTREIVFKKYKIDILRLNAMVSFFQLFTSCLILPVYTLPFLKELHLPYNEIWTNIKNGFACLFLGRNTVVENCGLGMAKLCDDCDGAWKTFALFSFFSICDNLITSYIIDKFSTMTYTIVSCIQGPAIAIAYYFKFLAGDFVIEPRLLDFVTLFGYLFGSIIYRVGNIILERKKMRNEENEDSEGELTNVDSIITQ
Sequence of PfCRT^Dd2 (Plasmodium falciparum, UniProt Q9N623, A220S/I356T/K76T/M74I/N326S/N75E/Q271E/R371I) (Q9N623 whole entry M74I/N75E/K76T/A220S/Q271E/N326S/I356T/R371I): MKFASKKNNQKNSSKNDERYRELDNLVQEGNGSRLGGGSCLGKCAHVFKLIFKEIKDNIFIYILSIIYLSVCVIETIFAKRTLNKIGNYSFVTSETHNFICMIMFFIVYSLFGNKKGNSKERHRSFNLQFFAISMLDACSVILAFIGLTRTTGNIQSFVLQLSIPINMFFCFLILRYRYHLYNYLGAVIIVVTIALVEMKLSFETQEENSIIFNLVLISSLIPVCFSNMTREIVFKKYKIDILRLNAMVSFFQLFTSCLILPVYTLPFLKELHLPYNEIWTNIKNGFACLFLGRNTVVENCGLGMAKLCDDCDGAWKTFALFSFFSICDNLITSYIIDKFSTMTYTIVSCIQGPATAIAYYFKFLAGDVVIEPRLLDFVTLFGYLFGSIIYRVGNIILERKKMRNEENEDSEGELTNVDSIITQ

76I-PfCRT^K1 (Plasmodium falciparum; A220S/K76I/M74I/N326S/N75E/Q271E/R371I)
Km [1]: 24.1 ± 3.0^f (6) μM
Km [2]: 0.42 ± 0.04^c,f (4) μM

C[C@@H]1CC[C@H]2[C@@H](C)C(=O)O[C@@H]3O[C@@]4(C)CC[C@@H]1[C@]32OO4 [artemisinin]
decrease in the IC50 induced by isoforms of PfCRT^CQR (hypersensitivity) [3, 11]: 1.9–3.7 fold

C[C@H]1[C@@H](O)O[C@@H]2O[C@@]3(C)CC[C@H]4[C@H](C)CC[C@@H]1[C@@]24OO3 [dihydroartemisinin]
decrease in the IC50 induced by isoforms of PfCRT^CQR (hypersensitivity) [3, 11]: 1.9–3.7 fold

N[C@@H](Cc1c[nH]cn1)C(=O)O [histidine]
effect on [3H]CQ uptake (trans-stimulation) [4]: neither spermine nor histidine altered
effect on accumulation of [3H]CQ in oocytes expressing PfCRT (PfCRT^Dd2 [5]): do not inhibit

CCCCN(CCCC)CC(O)c1cc(Cl)cc2c1-c1ccc(Cl)cc1/C2=C/c1ccc(Cl)cc1 (centres unmarked) [lumefantrine]
decrease in the IC50 induced by isoforms of PfCRT^CQR (hypersensitivity) [3]: 1.5–3.2 fold

C=C[C@H]1C[N@@]2CC[C@H]1C[C@@H]2[C@@H](O)c1ccnc2ccc(OC)cc12 [quinidine]
rate of uptake mediated by PfCRT^K1, greater than that measured for PfCRT^Dd2 (PfCRT^K1 [6]): 17–35%
rate of uptake (PfCRT^K1 [6]): 0.38 ± 0.08 pmol per oocyte/h
rate of transport, times lower than that measured for CQ (PfCRT^K1 [6]): 10–15 times
Apparent Vmax (PfCRT^K1 [6]; [12]): 24.4 ± 1.6 (7) pmol per oocyte/h
Km (PfCRT^K1 [6]; transport via PfCRT^K1 in oocytes, CQ pH 6.0, quinine and quinidine pH 5.0, 76K-PfCRT^K1 control subtracted, read-out: Apparent Km): 84 ± 1 µM
rate of uptake (PfCRT^Dd2 [7]): 0.30 ± 0.07 pmol per oocyte/h
Apparent Vmax (76N-PfCRT^K1): 14.1 ± 0.9^e,g (6) pmol per oocyte/h
Km (76N-PfCRT^K1): 94 ± 4 µM
rate of uptake (noninjected oocytes; [13]): 0.063 ± 0.010 pmol per oocyte/h
rate of uptake (noninjected oocytes; [14]): 0.05 ± 0.01 pmol per oocyte/h
Apparent Vmax (76I-PfCRT^K1 [8]): 7.2 ± 0.5^e,g (6) pmol per oocyte/h

C=C[C@H]1C[N@@]2CC[C@H]1C[C@H]2[C@H](O)c1ccnc2ccc(OC)cc12 [quinine]
rate of uptake mediated by PfCRT^K1, greater than that measured for PfCRT^Dd2 (PfCRT^K1 [6]): 17–35%
rate of uptake (PfCRT^K1 [6]): 0.55 ± 0.03 pmol per oocyte/h
rate of transport, times lower than that measured for CQ (PfCRT^K1 [6]): 10–15 times
Apparent Vmax (PfCRT^K1 [6]; [12]): 10.3 ± 0.8 (7) pmol per oocyte/h
rate of uptake (PfCRT^Dd2 [7]): 0.44 ± 0.04 pmol per oocyte/h
Apparent Vmax (76N-PfCRT^K1): 13.0 ± 1.0^d,f (6) pmol per oocyte/h
Km (76N-PfCRT^K1): 41 ± 2.6 µM
rate of uptake (noninjected oocytes; [13]): 0.10 ± 0.01 pmol per oocyte/h
rate of uptake (noninjected oocytes; [14]): 0.10 ± 0.01 pmol per oocyte/h
Vmax of 76I-PfCRT^K1, times lower than the value obtained for PfCRT^K1 (76I-PfCRT^K1 [8]; quinine transport): ~ 115 times
Apparent Vmax (76I-PfCRT^K1 [8]): 0.09 ± 0.01^c,f (4) pmol per oocyte/h

CC(C)(C)NC(=O)[C@@H]1C[C@@H]2CCCC[C@@H]2CN1C[C@@H](O)[C@H](Cc1ccccc1)NC(=O)[C@H](CC(N)=O)NC(=O)c1ccc2ccccc2n1 [saquinavir]
IC50 (PfCRT^CQR): 13 ± 1 µM
effect on [3H]amantadine transport (76I,369F-PfCRT^K1): inhibited
effect on [3H]amantadine transport (76I-PfCRT^K1 [9]): inhibited
effect on [3H]amantadine transport (PfCRT^K1 [10]): inhibited

NCCCNCCCCNCCCN [spermine]
effect on [3H]CQ uptake (trans-stimulation) [4]: neither spermine nor histidine altered
effect on accumulation of [3H]CQ in oocytes expressing PfCRT (PfCRT^Dd2 [5]): do not inhibit

COc1ccc(CCN(C)CCCC(C#N)(c2ccc(OC)c(OC)c2)C(C)C)cc1OC (centres unmarked) [verapamil]
effect on [3H]amantadine transport (76I,369F-PfCRT^K1): inhibited
effect on [3H]amantadine transport (76I-PfCRT^K1 [9]): inhibited
effect on [3H]amantadine transport (PfCRT^K1 [10]): inhibited

— article PMC4956231, “Molecular Mechanisms for Drug Hypersensitivity Induced by the Malaria Parasite’s Chloroquine Resistance Transporter” (PLoS Pathogens, 2016)
